Measurements taken from patent publication US6855712B2, “Combination of benzoquinazoline antifolates and protecting agents” (SmithKline Beecham Corporation, priority 1992, dated 2005).

Key:
beagle dogs = experiment: Dog toxicity of Compound A given as iv bolus for five consecutive days, with or without oral folic acid or leucovorin; assay type: in vivo
human tumor GC3TK = experiment: Mouse antitumor: human tumor GC3TK in the subrenal capsule of nude mice, Compound A ip bolus for five days; assay type: in vivo

## Cc1nc2ccc3ccc(CNc4ccc5c(c4)CN([C@@H](CCC(=O)O)C(=O)O)C5=O)cc3c2c(=O)[nH]1 [Compound A, (S)-2-(5-(((1,2-Dihydro-3-methyl-1-oxobenzo[f]quinazolin-9-yl)methyl)amino)-1-oxo-2-isoindolinyl)glutaric acid]
Beagle dogs; 8 mg/kg iv bolus for five consecutive days, alone
  lethality: lethal
Beagle dogs; 10 mg/kg iv 30 minutes after oral leucovorin (Wellcovorin) 10 mg/kg
  deaths: no deaths occurred
Beagle dogs; 10 mg/kg iv 30 minutes after oral leucovorin (Wellcovorin) 50 mg/kg
  deaths: no deaths occurred
Beagle dogs; 10 mg/kg iv 30 minutes after oral leucovorin (Wellcovorin) 100 mg/kg
  deaths: no deaths occurred
Beagle dogs; 10 mg/kg iv 30 minutes after oral leucovorin (Wellcovorin) 200 mg/kg
  deaths: no deaths occurred
Beagle dogs; 10 mg/kg iv, five consecutive days, given alone
  lethality: lethal
Beagle dogs; 20 mg/kg iv bolus 30 minutes after oral folic acid 50 mg/kg
  lethality: not lethal
Human tumor GC3TK; 3.2 mg/kg Compound A, folic acid 0 mg/kg, experiment with 50 mg/kg folic acid
  Mouse antiumor (% I): 100 % I
Human tumor GC3TK; 3.2 mg/kg Compound A, folic acid 0 mg/kg, experiment with 500 mg/kg folic acid
  Mouse antitumor (% I): 89 % I
Human tumor GC3TK; 3.2 mg/kg Compound A, folic acid 50 mg/kg
  Mouse antiumor (% I): 100 % I
Human tumor GC3TK; 3.2 mg/kg Compound A, folic acid 500 mg/kg
  Mouse antitumor (% I): 78 % I
Human tumor GC3TK; 3.2 mg/kg Compound A, leucovorin 0 mg/kg
  Mouse antitumor (% I): 100 % I
Human tumor GC3TK; 3.2 mg/kg Compound A, leucovorin 200 mg/kg
  Mouse antitumor (% I): 100 % I
Human tumor GC3TK; 3.2 mg/kg ip bolus for five days, no protectant
  inhibition of tumor growth: complete inhibition of tumor growth
Human tumor GC3TK; 10 mg/kg Compound A, folic acid 0 mg/kg, experiment with 50 mg/kg folic acid
  Mouse antitumor (% I): >100 % I
Human tumor GC3TK; 10 mg/kg Compound A, folic acid 0 mg/kg, experiment with 500 mg/kg folic acid
  Mouse antitumor (% I): >100 % I
Human tumor GC3TK; 10 mg/kg Compound A, folic acid 50 mg/kg
  Mouse antitumor (% I): >100 % I
Human tumor GC3TK; 10 mg/kg Compound A, folic acid 500 mg/kg
  Mouse antitumor (% I): >100 % I
Human tumor GC3TK; 10 mg/kg Compound A, leucovorin 0 mg/kg
  Mouse antitumor (% I): >100 % I
Human tumor GC3TK; 10 mg/kg Compound A, leucovorin 200 mg/kg
  Mouse antitumor (% I): >100 % I
Human tumor GC3TK; 10 mg/kg ip bolus for five days, no protectant
  inhibition of tumor growth: complete inhibition of tumor growth
Human tumor GC3TK; 50 mg/kg folic acid orally 30 minutes prior to the ip bolus dose of Compound A (3.2 or 10 mg/kg)
  inhibition of tumor growth: complete inhibition of tumor growth
Human tumor GC3TK; 200 mg/kg leucovorin orally 30 minutes prior to the ip bolus dose of Compound A (3.2 or 10 mg/kg)
  inhibition of tumor growth: complete inhibition of tumor growth
Human tumor GC3TK; another experiment, 3.2 mg/kg, absence of protectant
  inhibition: 89%
Human tumor GC3TK; another experiment, 10 mg/kg, absence of protectant
  growth inhibition: complete growth inhibition
Human tumor GC3TK; another experiment, 500 mg/kg folic acid orally 30 min prior to Compound A
  tumor growth inhibition versus absence of folic acid: not significantly different
